Data taken from ChEMBL document CHEMBL6103598, “One-Pot Synthesis of Novel Tetrasubstituted α-Aminophosphonates Derived from α-Methylphosphoserine and In Vivo Evaluation as Anti-Inflammatory Agents” (J Med Chem, 2025).
The source made the active and inactive calls. The rule behind the calls is not given here.

How the values were obtained:
Mus musculus [1] = assay: Antiinflammatory activity against TPA-induced ear edema in female CD1 mouse model assessed as reduction in ear edema by measuring maximum efficacy at 0.25 to 1.25 mg measured per ear incubated for 4 hrs administered topically relative to control; assay type: functional; conditions: CD1, topical, dose 0.25-1.25 mg
Mus musculus [2] = assay: Antiinflammatory activity against TPA-induced ear edema in female CD1 mouse model assessed as decrease in NLR value at 5.7 mg measured per ear administered topically incubated for 4 hrs by microscopic analysis relative to control; assay type: functional; design: scale not given: the % may be the effect or the level left
Mus musculus [3] = assay: Antiinflammatory activity against CFA-induced paw edema in female CD1 mouse model assessed as reduction in paw swelling at 10 mg/kg, po preincubated with compound for 30 mins followed by CFA stimulation and measured after 24 hrs; assay type: functional, organism-based; conditions: time 24.5 hrs
[4] = Octanol/water partition coefficient, logP of compound by shake flask method; assay type: physicochemical
Mus musculus [5] = assay: Antiinflammatory activity against TPA-induced ear edema in female CD1 mouse model assessed as reduction in ear edema administered topically incubated for 4 hrs measured per ear; assay type: functional, organism-based
Mus musculus [6] = assay: Potency index, ratio of Indomethacin ED50 to test compound ED50 for antiinflammatory activity against TPA-induced ear edema in female CD1 mouse model assessed as reduction in ear edema by measuring effective dose measured per ear incubated for 4 hrs administered topically; assay type: functional
Mus musculus [7] = assay: Antiinflammatory activity against CFA-induced paw edema in female CD1 mouse model assessed as reduction in paw swelling at 10 mg/kg, po preincubated with compound for 30 mins followed by CFA stimulation and measured after 2 to 6 hrs; assay type: functional, organism-based; conditions: time 2.5-6.5 hrs
Mus musculus [8] = assay: Antiinflammatory activity against CFA-induced paw edema in female CD1 mouse model assessed as reduction in paw swelling by measuring AUC at 10 mg/kg, po preincubated with compound for 30 mins followed by CFA stimulation and measured after 2 to 6 hrs relative to control; assay type: functional; design: scale not given: the % may be the effect or the level left; conditions: time 2.5-6.5 hrs
Mus musculus [9] = assay: Antiinflammatory activity against CFA-induced paw edema in female CD1 mouse model assessed as reduction in paw swelling at 10 mg/kg, po preincubated with CFA followed by compound addition and measured after 25 to 28 hrs relative to control; assay type: functional; design: scale not given: the % may be the effect or the level left; conditions: time 25-28 hrs
Mus musculus [10] = assay: Antiinflammatory activity against TPA-induced ear edema in female CD1 mouse model assessed as reduction in ear edema by measuring effective dose measured per ear incubated for 4 hrs administered topically; assay type: functional
Mus musculus [11] = assay: Antiinflammatory activity against TPA-induced ear edema in female CD1 mouse model assessed as decrease in NLR value at 3 mg measured per ear administered topically incubated for 4 hrs by microscopic analysis relative to control; assay type: functional; design: scale not given: the % may be the effect or the level left
Mus musculus [12] = assay: Antiinflammatory activity against TPA-induced ear edema in female CD1 mouse model assessed as decrease in NLR value at 1 mg measured per ear administered topically incubated for 4 hrs by microscopic analysis relative to control; assay type: functional; design: scale not given: the % may be the effect or the level left

logP [4]	SMILES	Emax (Mus musculus [1]) [%]	Activity (Mus musculus [2]) [%]	Activity (Mus musculus [3])	Activity (Mus musculus [5])	Ratio ED50 (Mus musculus [6])	Activity (Mus musculus [7])	Activity (Mus musculus [8]) [%]	Activity (Mus musculus [9]) [%]	ED50 (Mus musculus [10]) [mg]	Activity (Mus musculus [11]) [%]	Activity (Mus musculus [12]) [%]
3.3	CCC(=O)OCC(C)(NCc1ccccc1)P(=O)(OC)OC (stereo not drawn)	90.1	48	inactive	Dose-dependent-effect	1.1	Active	47.8	21.7	0.48		
3.5	CCC(=O)OCC(C)(N[C@@H](C)c1ccccc1)P(=O)(OC)OC (stereo partly drawn)	85.9		inactive	Dose-dependent-effect	0.8	Active	47.8	21.7	0.66		

More lines, now with the values behind:

SMILES	logP [4]	Emax (Mus musculus [1]) [%]	Activity (Mus musculus [2]) [%]	Activity (Mus musculus [3])	Activity (Mus musculus [5])	Ratio ED50 (Mus musculus [6])	Activity (Mus musculus [7])	Activity (Mus musculus [8]) [%]	Activity (Mus musculus [9]) [%]	ED50 (Mus musculus [10]) [mg]	Activity (Mus musculus [11]) [%]	Activity (Mus musculus [12]) [%]
COP(=O)(OC)C(C)(COC(=O)c1ccccc1)NCc1ccccc1 (stereo not drawn)	4.2	83.3		inactive	Dose-dependent-effect	1.1	Active	47.8	21.7	0.49		
COP(=O)(OC)C(C)(COC(=O)c1ccccc1)N[C@@H](C)c1ccccc1 (stereo partly drawn)	4.4	91.8		inactive	Dose-dependent-effect	1.2	Active	47.8	21.7	0.46	64.7	
COc1ccc2c(c1)c(CC(=O)O)c(C)n2C(=O)c1ccc(Cl)cc1 [INDOMETHACIN]	3.99	89.3		inactive			Active	58.7	36.5	0.54		59.3
COc1ccc2cc([C@H](C)C(=O)OCC(C)(NCc3ccccc3)P(=O)(OC)OC)ccc2c1 (stereo partly drawn)	4.5	84.8		inactive	Dose-dependent-effect	1	Active	47.8	21.7	0.53		
COc1ccc2cc([C@H](C)C(=O)O)ccc2c1 [NAPROXEN]		90.6		inactive	Dose-dependent-effect		Active	55.4	39.8	0.13		57.1
COc1ccc2cc([C@H](C)C(=O)OCC(C)(N[C@@H](C)c3ccccc3)P(=O)(OC)OC)ccc2c1 (stereo partly drawn)	4.8	93.9	46.7	inactive	Dose-dependent-effect	2.1	Active	47.8	21.7	0.26		
